# In patent publication US9738634B2, “Heterocyclic amide compound and herbicide” (SYNGENTA PARTICIPATIONS AG, priority 2013, dated 2017):
# Columns and labels:
# Assay type in all cases: in vivo
# Conditions in all cases: treatment dosage 320 g/ha
# [1] = system: transplanted rice; test: Test Example 1: preemergent weed treatment in the submerged state, effect on crop; a: transplanted rice
# Procedure, shortened: (§1)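 Alluvial soil in Wagner pots flooded to 4 cm; barnyard grass, bulrush and oval-leafed pondweed seeds sown, then 2.5-leaf rice seedlings transplanted. Same day, emulsified compound diluted in water to set g/ha dosages and applied to water surface; greenhouse 25–30 °C, effect scored by criteria after 3 weeks.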
# [2] = system: fig-leafed goosefoot; test: Test Example 3: weedkilling efficacy through soil treatment; M: fig-leafed goosefoot
# Procedure, shortened: (§2)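 Crop and weed responses were judged three weeks after a uniform surface spray of the water-diluted emulsion at the given g/ha rate. Seeds sat beneath about 1.5 cm of sterilized diluvial soil, and boxes stood in a greenhouse at 25 to 30° C.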
# [3] = system: Indian mallow; test: Test Example 4: weedkilling efficacy by foliar treatment; K: Indian mallow
# Procedure, shortened: (§3)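 Seeds are spot-sown into sterilized diluvial soil and covered with about 1.5 cm of soil. After 14 days' greenhouse growth at 25 to 30° C, plants are sprayed on stems and leaves with diluted emulsion at the stated g/ha rate, then scored at 3 weeks.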
# [4] = system: barnyard grass; test: Test Example 2: weedkilling efficacy, growth period weed treatment in the submerged state; A: barnyard grass
# Procedure, shortened: (§4)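 First, alluvial soil in pots is flooded to 4 cm and mixed seed is sown. Next, plants grow in a greenhouse at 25 to 30° C until the 1-2 leaf stage. Then diluted emulsion is applied onto the water surface at the given g/ha rate, and injury is assessed after 3 weeks.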
# [5] = system: rapeseed; test: Test Example 3: soil treatment, effect on crop; g: rapeseed
# Procedure, shortened: as §2
# [6] = system: bulrush; test: Test Example 2: weedkilling efficacy, growth period weed treatment in the submerged state; B: bulrush
# Procedure, shortened: as §4
# [7] = system: oval-leafed pondweed; test: Test Example 1: weedkilling efficacy, preemergent weed treatment in the submerged state; C: oval-leafed pondweed
# Procedure, shortened: as §1
# [8] = system: Italian ryegrass; test: Test Example 4: weedkilling efficacy by foliar treatment; I: Italian ryegrass
# Procedure, shortened: as §3
# [9] = system: soybean; test: Test Example 3: soil treatment, effect on crop; d: soybean
# Procedure, shortened: as §2
# [10] = system: redroot pigweed; test: Test Example 4: weedkilling efficacy by foliar treatment; L: redroot pigweed
# Procedure, shortened: as §3
# [11] = system: beet; test: Test Example 4: foliar treatment, effect on crop; f: beet
# Procedure, shortened: as §3
# [12] = system: green foxtail; test: Test Example 3: weedkilling efficacy through soil treatment; E: green foxtail
# Procedure, shortened: as §2
# [13] = system: catchweed; test: Test Example 4: weedkilling efficacy by foliar treatment; O: catchweed
# Procedure, shortened: as §3
# [14] = system: chickweed; test: Test Example 4: weedkilling efficacy by foliar treatment; N: chickweed
# Procedure, shortened: as §3
# [15] = system: barnyard grass; test: Test Example 1: weedkilling efficacy, preemergent weed treatment in the submerged state; A: barnyard grass
# Procedure, shortened: as §1
# [16] = system: bulrush; test: Test Example 1: weedkilling efficacy, preemergent weed treatment in the submerged state; B: bulrush
# Procedure, shortened: as §1
# [17] = system: wheat; test: Test Example 4: foliar treatment, effect on crop; e: wheat
# Procedure, shortened: as §3
# [18] = system: directly sown rice; test: Test Example 3: soil treatment, effect on crop; b: directly sown rice
# Procedure, shortened: as §2
# [19] = system: beet; test: Test Example 3: soil treatment, effect on crop; f: beet
# Procedure, shortened: as §2
# [20] = system: directly sown rice; test: Test Example 4: foliar treatment, effect on crop; b: directly sown rice
# Procedure, shortened: as §3
# [21] = system: redroot pigweed; test: Test Example 3: weedkilling efficacy through soil treatment; L: redroot pigweed
# Procedure, shortened: as §2
# [22] = system: wild oat; test: Test Example 4: weedkilling efficacy by foliar treatment; G: wild oat
# Procedure, shortened: as §3
# [23] = system: green foxtail; test: Test Example 4: weedkilling efficacy by foliar treatment; E: green foxtail
# Procedure, shortened: as §3
# [24] = system: common wind-grass; test: Test Example 3: weedkilling efficacy through soil treatment; J: common wind-grass
# Procedure, shortened: as §2
# [25] = system: corn; test: Test Example 4: foliar treatment, effect on crop; c: corn
# Procedure, shortened: as §3
# [26] = system: rapeseed; test: Test Example 4: foliar treatment, effect on crop; g: rapeseed
# Protocol: (§5) Testing of Weedkilling Efficacy by Foliar Treatment
# (§6) Sterilized diluvial soil was introduced into 21 cm long, 13 cm wide, 7 cm deep plastic boxes, and seeds of crabgrass, green foxtail, barnyard grass, wild oat, black-grass, Italian ryegrass, common wind-grass, Indian mallow, redroot pigweed, fig-leafed goosefoot, chickweed, catchweed, birds-eye speedwell, corn, soybean, rice, wheat, beet and rapeseed were each spot-sown, and covered with about 1.5 cm of soil, then the plants were grown in a greenhouse at 25 to 30° C.
# (§7) After they had grown for 14 days, emulsions of compounds of the present invention prepared according to compounding example 2 were diluted with water to give the specified dosages, and applied uniformly onto the stem and leaf parts with a small sprayer. 3 weeks after the pesticide treatment the effect on each type of plant was investigated on the basis of the assessment criteria of test example 1.
# (§8) A: barnyard grass, B: bulrush, C: oval-leafed pondweed, D: crabgrass, E: green foxtail, F: barnyard grass, G: wild oat, H: black-grass, I: Italian ryegrass, J: common wind-grass, K: Indian mallow, L: redroot pigweed, M: fig-leafed goosefoot, N: chickweed, O: catchweed, p: birds-eye speedwell, a: transplanted rice, b: directly sown rice, c: corn, d: soybean, e: wheat, f: beet, g: rapeseed
# (§9) Further, pesticide dosage (g/ha) indicates the concentration regulated such that treatment was with only the stated number of grams (g), when calculated per hectare (ha).
# [27] = system: oval-leafed pondweed; test: Test Example 2: weedkilling efficacy, growth period weed treatment in the submerged state; C: oval-leafed pondweed
# Procedure, shortened: as §4
# [28] = system: corn; test: Test Example 3: soil treatment, effect on crop; c: corn
# Procedure, shortened: as §2
# [29] = system: wild oat; test: Test Example 3: weedkilling efficacy through soil treatment; G: wild oat
# Procedure, shortened: as §2
# [30] = system: barnyard grass; test: Test Example 4: weedkilling efficacy by foliar treatment; F: barnyard grass
# Protocol: as §5, §6, §7, §8, §9
# [31] = system: black-grass; test: Test Example 3: weedkilling efficacy through soil treatment; H: black-grass
# Procedure, shortened: as §2
# [32] = system: soybean; test: Test Example 4: foliar treatment, effect on crop; d: soybean
# Procedure, shortened: as §3
# [33] = system: crabgrass; test: Test Example 4: weedkilling efficacy by foliar treatment; D: crabgrass
# Procedure, shortened: as §3
# [34] = system: birds-eye speedwell; test: Test Example 3: weedkilling efficacy through soil treatment; p: birds-eye speedwell
# Procedure, shortened: as §2
# [35] = system: barnyard grass; test: Test Example 3: weedkilling efficacy through soil treatment; F: barnyard grass
# Procedure, shortened: as §2
# [36] = system: common wind-grass; test: Test Example 4: weedkilling efficacy by foliar treatment; J: common wind-grass
# Protocol: as §5, §6, §7, §8, §9
# [37] = system: Italian ryegrass; test: Test Example 3: weedkilling efficacy through soil treatment; I: Italian ryegrass
# Procedure, shortened: as §2
# [38] = system: fig-leafed goosefoot; test: Test Example 4: weedkilling efficacy by foliar treatment; M: fig-leafed goosefoot
# Procedure, shortened: as §3
# [39] = system: Indian mallow; test: Test Example 3: weedkilling efficacy through soil treatment; K: Indian mallow
# Procedure, shortened: as §2
# [40] = system: crabgrass; test: Test Example 3: weedkilling efficacy through soil treatment; D: crabgrass
# Procedure, shortened: as §2
# [41] = system: black-grass; test: Test Example 4: weedkilling efficacy by foliar treatment; H: black-grass
# Procedure, shortened: as §3
# [42] = system: wheat; test: Test Example 3: soil treatment, effect on crop; e: wheat
# Procedure, shortened: as §2
# [43] = system: chickweed; test: Test Example 3: weedkilling efficacy through soil treatment; N: chickweed
# Procedure, shortened: as §2
smiles,measurement,setting,value
CC1=C(c2cccnc2F)C(=O)N(C(C)(C)C(=O)Nc2cc(C)cc(Cl)n2)CO1 [B-2-15],a (transplanted rice) effect on crop grade,[1],"3 (weed kill ratio 40% or more, less than 70%)"
same,M (fig-leafed goosefoot) weedkilling efficacy grade,[2],"3 (weed kill ratio 40% or more, less than 70%)"
same,K (Indian mallow) weedkilling efficacy grade,[3],"1 (weed kill ratio 5% or more, less than 20%)"
same,A (barnyard grass) weedkilling efficacy grade,[4],"4 (weed kill ratio 70% or more, less than 90%)"
same,g (rapeseed) effect on crop grade,[5],"2 (weed kill ratio 20% or more, less than 40%)"
same,B (bulrush) weedkilling efficacy grade,[6],"5 (weed kill ratio 90% or more, (practically complete withering))"
same,C (oval-leafed pondweed) weedkilling efficacy grade,[7],"5 (weed kill ratio 90% or more, (practically complete withering))"
same,I (Italian ryegrass) weedkilling efficacy grade,[8],"5 (weed kill ratio 90% or more, (practically complete withering))"
same,d (soybean) effect on crop grade,[9],0 (weed kill ratio 5% or less (practically no effect))
same,L (redroot pigweed) weedkilling efficacy grade,[10],"2 (weed kill ratio 20% or more, less than 40%)"
same,f (beet) effect on crop grade,[11],"3 (weed kill ratio 40% or more, less than 70%)"
same,E (green foxtail) weedkilling efficacy grade,[12],"5 (weed kill ratio 90% or more, (practically complete withering))"
same,O (catchweed) weedkilling efficacy grade,[13],"3 (weed kill ratio 40% or more, less than 70%)"
same,N (chickweed) weedkilling efficacy grade,[14],"4 (weed kill ratio 70% or more, less than 90%)"
same,A (barnyard grass) weedkilling efficacy grade,[15],"5 (weed kill ratio 90% or more, (practically complete withering))"
same,B (bulrush) weedkilling efficacy grade,[16],"5 (weed kill ratio 90% or more, (practically complete withering))"
same,e (wheat) effect on crop grade,[17],"2 (weed kill ratio 20% or more, less than 40%)"
same,b (directly sown rice) effect on crop grade,[18],"5 (weed kill ratio 90% or more, (practically complete withering))"
same,f (beet) effect on crop grade,[19],"2 (weed kill ratio 20% or more, less than 40%)"
same,b (directly sown rice) effect on crop grade,[20],"5 (weed kill ratio 90% or more, (practically complete withering))"
same,L (redroot pigweed) weedkilling efficacy grade,[21],0 (weed kill ratio 5% or less (practically no effect))
same,G (wild oat) weedkilling efficacy grade,[22],"3 (weed kill ratio 40% or more, less than 70%)"
same,E (green foxtail) weedkilling efficacy grade,[23],"5 (weed kill ratio 90% or more, (practically complete withering))"
same,J (common wind-grass) weedkilling efficacy grade,[24],"5 (weed kill ratio 90% or more, (practically complete withering))"
same,c (corn) effect on crop grade,[25],"4 (weed kill ratio 70% or more, less than 90%)"
same,g (rapeseed) effect on crop grade,[26],"4 (weed kill ratio 70% or more, less than 90%)"
same,C (oval-leafed pondweed) weedkilling efficacy grade,[27],"5 (weed kill ratio 90% or more, (practically complete withering))"
same,c (corn) effect on crop grade,[28],0 (weed kill ratio 5% or less (practically no effect))
same,G (wild oat) weedkilling efficacy grade,[29],"3 (weed kill ratio 40% or more, less than 70%)"
same,F (barnyard grass) weedkilling efficacy grade,[30],"4 (weed kill ratio 70% or more, less than 90%)"
same,H (black-grass) weedkilling efficacy grade,[31],"5 (weed kill ratio 90% or more, (practically complete withering))"
same,d (soybean) effect on crop grade,[32],"1 (weed kill ratio 5% or more, less than 20%)"
same,D (crabgrass) weedkilling efficacy grade,[33],"4 (weed kill ratio 70% or more, less than 90%)"
same,P (birds-eye speedwell) weedkilling efficacy grade,[34],"4 (weed kill ratio 70% or more, less than 90%)"
same,F (barnyard grass) weedkilling efficacy grade,[35],"5 (weed kill ratio 90% or more, (practically complete withering))"
same,J (common wind-grass) weedkilling efficacy grade,[36],"5 (weed kill ratio 90% or more, (practically complete withering))"
same,I (Italian ryegrass) weedkilling efficacy grade,[37],"5 (weed kill ratio 90% or more, (practically complete withering))"
same,M (fig-leafed goosefoot) weedkilling efficacy grade,[38],"4 (weed kill ratio 70% or more, less than 90%)"
same,K (Indian mallow) weedkilling efficacy grade,[39],0 (weed kill ratio 5% or less (practically no effect))
same,D (crabgrass) weedkilling efficacy grade,[40],"5 (weed kill ratio 90% or more, (practically complete withering))"
same,H (black-grass) weedkilling efficacy grade,[41],"4 (weed kill ratio 70% or more, less than 90%)"
same,e (wheat) effect on crop grade,[42],0 (weed kill ratio 5% or less (practically no effect))
same,N (chickweed) weedkilling efficacy grade,[43],"2 (weed kill ratio 20% or more, less than 40%)"
